# Patent publication US9737502B2, “Calebin A for hepatic steatosis” (SAMI LABS LIMITED, priority 2011, dated 2017)
# Legend:
# [1] = system: 3T3-L1 cells; assay: Oil Red-O staining of adipogenic cultures (adipogenesis inhibition); type: cell-based, mouse
# Protocol: Terminal differentiation of adipocytes is accompanied by the accumulation of great amounts of lipids in large cytoplasmic vesicles. A common assay to measure adipocyte differentiation in cell culture is with the dye Oil Red-O (ORO). ORO is a lipid-soluble bright red dye which is a reliable indicator of adipocyte differentiation (adipogenesis).
# (§1) 3T3-L1 cells approximately 60×10^4 cells are seeded for 48-72 hrs to get 70-80% confluence. After 48 hrs 200 μl of AIM (Adipogenesis induction medium) freshly prepared is added. 72 hrs later 200 μl APM (Adipogenesis progression medium) with the test compounds in different concentrations is added to the wells. The cells are incubated for 48 hrs in a humidified atmosphere (37° C.) of 5% CO2 and 95% air. The supernatant is collected and stored for the estimation of leptin, adiponectin, IL-6 and TNF-α by ELISA. Cells are fixed by adding 100 μl of 10% formalin and ORO staining is done. OD is read at 492 nm in microplate reader. The results are expressed as IC50 values using Graphpad prism software.
# (§2) The percentage of inhibition of adipogenesis is calculated as follows, % inhibition=C−T/[…] Where C-absorbance of Oil red 0 in differentiating/undifferentiated cells T-absorbance of Oil Red-O in sample treated differentiating/undifferentiated cells. The estimation of leptin, adiponectin, IL-6 and TNF-α is done according to user's manual from R&D Systems.
# [2] = Study I: HFD-fed mice, diet supplementation 12 weeks; body weight, food intake, relative organ weights; conditions: for wt gain / Final wt / relative organ weight: Kidney / relative organ weight: liver: 12 weeks; for wt gain: HFD 16.50 ± 2.90; for Final wt: HFD 38.63 ± 3.92; for relative organ weight: Kidney / relative organ weight: liver: percentage of body weight; for Initial wt: baseline
# Protocol: Male C57BL/6J mice at 5 weeks of age were purchased from the BioLASCO Experimental Animal Center (Taiwan Co., Ltd., Taipei, Taiwan) and housed in a controlled atmosphere (25±1° C. at 50% relative humidity) and with a 12-h light/12-h dark cycle. […] Animals had free access to food and water at all times. Food cups were replenished with fresh diet daily. The diet intake of animals was monitored every day and the body weight was recorded weekly. […] At the end of the study, all animals were fasted overnight and sacrificed by CO2 asphyxiation. Blood samples were collected from the heart for biochemical analysis. Liver, spleen, kidney and fat pads (perigonadal, retroperitoneal and mesenteric fat) were immediately removed, weighed (TABLE VI) and photographed. […] Body weight was monitored weekly, and the average body weight of each group was expressed as the mean±SE. Statistical analysis was done by Student's t test. (*) P<0.01, compared with ND group; (#) P<0.01, compared with HFD group.
# [3] = system: adiponectin; assay: Study 2: serum adiponectin by ELISA in obese mice; type: in vivo, C57 mice; conditions: Study 2, end of study period
# Protocol: Further, on completion of the study period blood samples were collected from all the animals in […] for estimation of systemic expression of leptin and adiponectin. Blood samples were collected humanely from retro-orbital plexus puncture method under mild ether anesthesia with the help of a fine capillary tube. The blood samples collected in tubes without anticoagulant were centrifuged at 3000 rpm for 10 minutes to obtain serum which was subjected to ELISA technique for the estimation of leptin and adiponectin. The import of leptin and adiponectin expression as biomarkers in obesity has been discussed in aforesaid paragraphs. […] Low systemic adiponectin levels have been cited as predictive factors in the progression of disease states like Type II Diabetes mellitus (Chamukuttan Snehalatha et al, “Plasma Adiponectin Is an Independent Predictor of Type 2 Diabetes in Asian Indians”, Diabetes Care December 2003 vol. 26 no. 12 3226-3229).
# [4] = system: adiponectin; assay: Estimation of adiponectin in adipocyte supernatant by ELISA; type: cell-based; conditions: human adipocytes
# Protocol: as §1, §2
# [5] = system: HFD induced hepatic steatosis; assay: Liver histopathology and hepatic triglyceride in HFD-fed mice; type: in vivo, C57BL/6J mice; conditions: Calebin A 0.25% and 1% in HFD, dose dependant
# Protocol: A portion of the livers in different groups were dissected and fixed in 10% buffered formalin for at least 24 hours, then dehydrated with a sequence of ethanol solutions and processed for embedding in paraffin. Sections of 5-6 μm in thickness were cut, deparaffinized, rehydrated, stained with haematoxylin & eosin (H&E) and subjected to pbotomicroscopic assessment. Liver histopathology was evaluated according to the NAFLD system outlined in Kleiner, D. E., Brunt, E. M., Van, N. M., Behling, C. et al., Design and validation of a histological scoring system for nonalcoholic fatty liver disease. Hepatology 2005, 41, 1313-1321. The score of hepatocellular ballooning was graded 0-2 based on the number of balloon cell per field at ×200 magnification (grading: 0=no balloon cell; 1=few balloon cells; 2=prominent balloon cells) in H&E stained sections. The number of infiltrating immune cells was counted at 200× magnification in five different areas. In the HFD group significant inflammatory degeneration, hepatocellular ballooning degeneration and triglyceride accumulation were seen. Quantitative analysis indicated elevated hepatic triglyceride levels as compared to the ND group. Administration of Calebin A at concentrations of 0.25% and 1% attenuated HFD induced triglyceride, hepatocellular ballooning degeneration and inflammatory infiltration in a dose dependant manner. Accordingly, in another most preferred embodiment, the present invention relates to a method of treating high fat diet (HFD) induced hepatic steatosis in mammals, said method comprising step of bringing into contact HFD affected hepatic cells marked by inflammatory infiltration, hepatocellular ballooning degeneration and high triglyceride levels with Calebin A derived from orally administering to said mammals effective concentrations of Calebin A to bring about the effect of attenuation of hepatic steatosis in a dose dependant manner. Alternatively, in another most preferred embodiment, the present invention also relates to Calebin A for treating high fat diet (HFD) induced hepatic steatosis in mammals.
# [6] = system: Fully differentiated adipocytes; assay: Lipolysis (glycerol release) in fully differentiated adipocytes; type: cell-based, Mouse; conditions: fully differentiated adipocytes (8 days)
# Protocol: Fully differentiated adipocytes (8 days) previously untreated with Calebin A as described in procedural steps outlined in Example IV were treated with Calebin A at concentrations of 5-30 μM. Lipolysis was linked to the breakdown of lipids into glycerol that was released into the cell culture medium and detected thereof. […] Thus, in another most preferred embodiment, the present invention relates to a method of inducing lipolysis in mammalian adipocytes, said method comprising the step of treating mammalian adipocytes with varying concentrations of Calebin A to bring about the effect of dose dependant lipolysis in said adipocytes. […] Epididymal fat pads were dissected and fixed in 10% buffered formalin for at least 24 hours, then dehydrated with a sequence of ethanol solutions and processed for embedding in paraffin. Sections of 5-6 μm in thickness were cut, de-paraffinized, rehydrated, stained with haematoxylin & eosin (H&E) and subjected to photomicroscopic assessment. Adipocyte size was determined using a Nikon light microscope (Japan) equipped with an ocular micrometer at 200× magnification in 10 random fields per section. […]
structure (smiles),measurement,setting,value
COc1cc(/C=C/C(=O)COC(=O)/C=C/c2ccc(O)c(OC)c2)ccc1O [Calebin A],percentage adipogenesis inhibition,[1]; 0.5 μg/ml,32.43%
same,percentage adipogenesis inhibition,[1]; 1.0 μg/ml,38.59%
same,percentage adipogenesis inhibition,[1]; 2.0 μg/ml,35.8%
same,wt gain,[2]; HFD + 0.25% Calebin A,13.02 ± 2.52 g
same,Final wt,[2]; HFD + 0.25% Calebin A,35.28 ± 2.38 g
same,relative organ weight: Kidney,[2]; HFD + 0.25% Calebin A,1.22 ± 0.12%
same,relative organ weight: liver,[2]; HFD + 0.25% Calebin A,4.05 ± 0.28%
same,Initial wt,[2]; HFD + 0.25% Calebin A,22.27 ± 0.49 g
same,wt gain,[2]; HFD + 1% Calebin A,10.12 ± 2.48 g
same,Final wt,[2]; HFD + 1% Calebin A,31.99 ± 2.50 g
same,relative organ weight: Kidney,[2]; HFD + 1% Calebin A,1.30 ± 0.15%
same,relative organ weight: liver,[2]; HFD + 1% Calebin A,4.00 ± 0.25%
same,Initial wt,[2]; HFD + 1% Calebin A,21.88 ± 0.91^ g
same,enhancing the adiponectin expression in the serum of obese animals,[3],significant effect
same,percentage enhancement of adiponectin expression,[4]; 0.5 μg/ml,27.12%
same,percentage enhancement of adiponectin expression,[4]; 1.0 μg/ml,34.06%
same,percentage enhancement of adiponectin expression,[4]; 2.0 μg/ml,32.8%
same,HFD induced hepatic triglyceride,[5],attenuated
same,inflammatory infiltration in liver,[5]; H&E,attenuated
same,hepatocellular ballooning degeneration,"[5]; H&E, NAFLD scoring",attenuated
same,release of glycerol into the medium (lipolysis),[6]; 30 μM,Glycerol was detected
same,release of glycerol into the medium (lipolysis),[6]; 5-20 μM,did not bring about the release of glycerol
